Results published in ChEMBL document CHEMBL1909046, “DrugMatrix in vitro pharmacology data”.

biological target: T1, Calcitonin receptor (Homo sapiens, UniProt P30988); test: not given; type: cell membranes, Membrane; details: t47d; also: in other assays of this panel Not Active means under 50% inhibition at 10 µM
T1 sequence (P30988 whole entry): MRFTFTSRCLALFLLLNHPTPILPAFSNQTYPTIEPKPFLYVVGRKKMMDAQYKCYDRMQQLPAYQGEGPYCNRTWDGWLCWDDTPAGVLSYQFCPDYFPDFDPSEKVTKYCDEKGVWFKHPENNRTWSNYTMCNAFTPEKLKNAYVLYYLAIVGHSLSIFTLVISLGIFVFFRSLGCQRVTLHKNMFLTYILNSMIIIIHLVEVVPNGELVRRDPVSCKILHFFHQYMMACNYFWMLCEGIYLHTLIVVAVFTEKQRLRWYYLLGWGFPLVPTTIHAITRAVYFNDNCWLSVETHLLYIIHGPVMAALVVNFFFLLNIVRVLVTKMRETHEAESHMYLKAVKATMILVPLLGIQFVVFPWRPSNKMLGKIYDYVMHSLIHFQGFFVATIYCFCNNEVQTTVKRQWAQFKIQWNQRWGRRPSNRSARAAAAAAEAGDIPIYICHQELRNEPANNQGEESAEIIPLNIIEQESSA

Row | Compound | IC50
1 | O=C1OCCN1/N=C/c1ccc([N+](=O)[O-])o1 [FURAZOLIDONE] | Not Active
2 | CCCc1cc(=O)[nH]c(=S)[nH]1 [PROPYLTHIOURACIL] | Not Active
3 | CC(=O)OCC(=O)[C@@]1(OC(C)=O)[C@@H](C)C[C@H]2[C@@H]3C[C@H](F)C4=CC(=O)C=C[C@]4(C)[C@@]3(F)[C@@H](O)C[C@@]21C [DIFLORASONE DIACETATE] | Not Active

test system: not listed separately; test: DRUGMATRIX: Potassium Channel [KATP] radioligand binding (ligand: [3H] Glyburide); type: cell membranes, Membrane; details: hit-t15; Not Active = under 50% inhibition at 10 µM

Row | Compound | IC50 | Ki
4 | O=C1OCCN1/N=C/c1ccc([N+](=O)[O-])o1 [FURAZOLIDONE] | Not Active | Not Active
5 | CCCc1cc(=O)[nH]c(=S)[nH]1 [PROPYLTHIOURACIL] | Not Active | Not Active
6 | CC(=O)OCC(=O)[C@@]1(OC(C)=O)[C@@H](C)C[C@H]2[C@@H]3C[C@H](F)C4=CC(=O)C=C[C@]4(C)[C@@]3(F)[C@@H](O)C[C@@]21C [DIFLORASONE DIACETATE] | Not Active | Not Active

biological target: Mitogen-activated protein kinase 3 (Homo sapiens, UniProt P27361); test: DRUGMATRIX: Protein Serine/Threonine Kinase, ERK1 enzyme inhibition (substrate: Myelin Basic Protein); set-up: species or system Escherichia coli; details: Not Active = under 50% inhibition at 10 µM
Sequence (P27361 whole entry): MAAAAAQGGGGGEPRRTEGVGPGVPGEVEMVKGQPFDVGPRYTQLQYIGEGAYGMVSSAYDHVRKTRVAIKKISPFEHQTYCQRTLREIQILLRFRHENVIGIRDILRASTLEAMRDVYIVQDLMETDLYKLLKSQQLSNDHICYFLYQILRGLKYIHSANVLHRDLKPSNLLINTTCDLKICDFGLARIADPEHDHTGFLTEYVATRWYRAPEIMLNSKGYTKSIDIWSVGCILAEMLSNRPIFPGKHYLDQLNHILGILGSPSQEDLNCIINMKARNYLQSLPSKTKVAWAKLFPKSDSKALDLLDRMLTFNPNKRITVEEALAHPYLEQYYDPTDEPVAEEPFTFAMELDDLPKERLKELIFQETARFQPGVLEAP

Row | Compound | IC50
7 | O=C1OCCN1/N=C/c1ccc([N+](=O)[O-])o1 [FURAZOLIDONE] | Not Active
8 | CCCc1cc(=O)[nH]c(=S)[nH]1 [PROPYLTHIOURACIL] | Not Active
9 | CC(=O)OCC(=O)[C@@]1(OC(C)=O)[C@@H](C)C[C@H]2[C@@H]3C[C@H](F)C4=CC(=O)C=C[C@]4(C)[C@@]3(F)[C@@H](O)C[C@@]21C [DIFLORASONE DIACETATE] | Not Active

biological target: Substance-P receptor (Homo sapiens, UniProt P25103); test: not given; type: cell membranes, CHO, Membrane; details: cho; also: in other assays of this panel Not Active means under 50% inhibition at 10 µM
Sequence (P25103 whole entry): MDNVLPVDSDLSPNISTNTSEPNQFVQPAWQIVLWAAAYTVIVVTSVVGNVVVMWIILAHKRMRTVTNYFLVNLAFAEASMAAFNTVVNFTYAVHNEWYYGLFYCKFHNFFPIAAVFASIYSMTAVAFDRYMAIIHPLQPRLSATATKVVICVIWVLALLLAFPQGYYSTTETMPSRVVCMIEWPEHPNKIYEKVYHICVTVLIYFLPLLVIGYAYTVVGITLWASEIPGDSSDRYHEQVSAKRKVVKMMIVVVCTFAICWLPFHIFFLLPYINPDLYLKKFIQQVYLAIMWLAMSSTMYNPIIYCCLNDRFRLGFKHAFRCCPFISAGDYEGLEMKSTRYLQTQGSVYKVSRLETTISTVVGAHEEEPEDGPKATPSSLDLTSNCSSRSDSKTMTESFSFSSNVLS

Row | Compound | IC50
10 | O=C1OCCN1/N=C/c1ccc([N+](=O)[O-])o1 [FURAZOLIDONE] | Not Active
11 | CCCc1cc(=O)[nH]c(=S)[nH]1 [PROPYLTHIOURACIL] | Not Active
12 | CC(=O)OCC(=O)[C@@]1(OC(C)=O)[C@@H](C)C[C@H]2[C@@H]3C[C@H](F)C4=CC(=O)C=C[C@]4(C)[C@@]3(F)[C@@H](O)C[C@@]21C [DIFLORASONE DIACETATE] | Not Active

test system: not listed separately; test: DRUGMATRIX: GABAA, Muscimol, Central radioligand binding (ligand: [3H] Muscimol); type: cell membranes, Rattus norvegicus, Wistar, Brain, Membrane; details: Not Active = under 50% inhibition at 10 µM

Row | Compound | IC50 | Ki
13 | O=C1OCCN1/N=C/c1ccc([N+](=O)[O-])o1 [FURAZOLIDONE] | Not Active | Not Active
14 | CCCc1cc(=O)[nH]c(=S)[nH]1 [PROPYLTHIOURACIL] | Not Active | Not Active
15 | CC(=O)OCC(=O)[C@@]1(OC(C)=O)[C@@H](C)C[C@H]2[C@@H]3C[C@H](F)C4=CC(=O)C=C[C@]4(C)[C@@]3(F)[C@@H](O)C[C@@]21C [DIFLORASONE DIACETATE] | Not Active | Not Active

test system: not listed separately; test: DRUGMATRIX: Nicotinic Acetylcholine radioligand binding (ligand: [125I] Epibatidine); type: cell membranes, Membrane; details: imr-32; Not Active = under 50% inhibition at 10 µM

Row | Compound | IC50 | Ki
16 | O=C1OCCN1/N=C/c1ccc([N+](=O)[O-])o1 [FURAZOLIDONE] | Not Active | Not Active
17 | CCCc1cc(=O)[nH]c(=S)[nH]1 [PROPYLTHIOURACIL] | Not Active | Not Active
18 | CC(=O)OCC(=O)[C@@]1(OC(C)=O)[C@@H](C)C[C@H]2[C@@H]3C[C@H](F)C4=CC(=O)C=C[C@]4(C)[C@@]3(F)[C@@H](O)C[C@@]21C [DIFLORASONE DIACETATE] | Not Active | Not Active

biological target: C-C chemokine receptor type 5 (Homo sapiens, UniProt P51681); test: not given; type: cell membranes, Membrane; details: hek293; also: in other assays of this panel Not Active means under 50% inhibition at 10 µM
Sequence (P51681 whole entry): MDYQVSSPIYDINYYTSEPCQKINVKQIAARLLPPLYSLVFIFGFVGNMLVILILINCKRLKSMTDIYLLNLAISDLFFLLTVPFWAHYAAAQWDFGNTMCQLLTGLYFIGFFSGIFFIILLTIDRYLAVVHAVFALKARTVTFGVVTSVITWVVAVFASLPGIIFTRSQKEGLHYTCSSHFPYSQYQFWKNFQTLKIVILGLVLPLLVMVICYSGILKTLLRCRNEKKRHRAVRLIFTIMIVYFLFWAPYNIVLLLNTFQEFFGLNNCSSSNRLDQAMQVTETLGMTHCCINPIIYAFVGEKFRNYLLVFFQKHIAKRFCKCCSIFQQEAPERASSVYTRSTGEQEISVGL

Row | Compound | IC50
19 | O=C1OCCN1/N=C/c1ccc([N+](=O)[O-])o1 [FURAZOLIDONE] | Not Active
20 | CCCc1cc(=O)[nH]c(=S)[nH]1 [PROPYLTHIOURACIL] | Not Active
21 | CC(=O)OCC(=O)[C@@]1(OC(C)=O)[C@@H](C)C[C@H]2[C@@H]3C[C@H](F)C4=CC(=O)C=C[C@]4(C)[C@@]3(F)[C@@H](O)C[C@@]21C [DIFLORASONE DIACETATE] | Not Active

test system: not listed separately; test: DRUGMATRIX: Interleukin IL-1 radioligand binding (ligand: [125I] interleukin 1beta); type: cell membranes, Membrane; details: nih3t3; Not Active = under 50% inhibition at 10 µM

Row | Compound | IC50 | Ki
22 | O=C1OCCN1/N=C/c1ccc([N+](=O)[O-])o1 [FURAZOLIDONE] | Not Active | Not Active
23 | CCCc1cc(=O)[nH]c(=S)[nH]1 [PROPYLTHIOURACIL] | Not Active | Not Active
24 | CC(=O)OCC(=O)[C@@]1(OC(C)=O)[C@@H](C)C[C@H]2[C@@H]3C[C@H](F)C4=CC(=O)C=C[C@]4(C)[C@@]3(F)[C@@H](O)C[C@@]21C [DIFLORASONE DIACETATE] | Not Active | Not Active

biological target: T2, Angiotensin-converting enzyme (Oryctolagus cuniculus, UniProt P12822); test: biochemical; type: tissue-based, Lung; details: not given;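 also: enzymatic inhibition of angiotensin-converting enzyme measured with FAPGG as the substrate; in other assays of this panel Not Active means under 50% inhibition at 10 µM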
T2 sequence (P12822 whole entry): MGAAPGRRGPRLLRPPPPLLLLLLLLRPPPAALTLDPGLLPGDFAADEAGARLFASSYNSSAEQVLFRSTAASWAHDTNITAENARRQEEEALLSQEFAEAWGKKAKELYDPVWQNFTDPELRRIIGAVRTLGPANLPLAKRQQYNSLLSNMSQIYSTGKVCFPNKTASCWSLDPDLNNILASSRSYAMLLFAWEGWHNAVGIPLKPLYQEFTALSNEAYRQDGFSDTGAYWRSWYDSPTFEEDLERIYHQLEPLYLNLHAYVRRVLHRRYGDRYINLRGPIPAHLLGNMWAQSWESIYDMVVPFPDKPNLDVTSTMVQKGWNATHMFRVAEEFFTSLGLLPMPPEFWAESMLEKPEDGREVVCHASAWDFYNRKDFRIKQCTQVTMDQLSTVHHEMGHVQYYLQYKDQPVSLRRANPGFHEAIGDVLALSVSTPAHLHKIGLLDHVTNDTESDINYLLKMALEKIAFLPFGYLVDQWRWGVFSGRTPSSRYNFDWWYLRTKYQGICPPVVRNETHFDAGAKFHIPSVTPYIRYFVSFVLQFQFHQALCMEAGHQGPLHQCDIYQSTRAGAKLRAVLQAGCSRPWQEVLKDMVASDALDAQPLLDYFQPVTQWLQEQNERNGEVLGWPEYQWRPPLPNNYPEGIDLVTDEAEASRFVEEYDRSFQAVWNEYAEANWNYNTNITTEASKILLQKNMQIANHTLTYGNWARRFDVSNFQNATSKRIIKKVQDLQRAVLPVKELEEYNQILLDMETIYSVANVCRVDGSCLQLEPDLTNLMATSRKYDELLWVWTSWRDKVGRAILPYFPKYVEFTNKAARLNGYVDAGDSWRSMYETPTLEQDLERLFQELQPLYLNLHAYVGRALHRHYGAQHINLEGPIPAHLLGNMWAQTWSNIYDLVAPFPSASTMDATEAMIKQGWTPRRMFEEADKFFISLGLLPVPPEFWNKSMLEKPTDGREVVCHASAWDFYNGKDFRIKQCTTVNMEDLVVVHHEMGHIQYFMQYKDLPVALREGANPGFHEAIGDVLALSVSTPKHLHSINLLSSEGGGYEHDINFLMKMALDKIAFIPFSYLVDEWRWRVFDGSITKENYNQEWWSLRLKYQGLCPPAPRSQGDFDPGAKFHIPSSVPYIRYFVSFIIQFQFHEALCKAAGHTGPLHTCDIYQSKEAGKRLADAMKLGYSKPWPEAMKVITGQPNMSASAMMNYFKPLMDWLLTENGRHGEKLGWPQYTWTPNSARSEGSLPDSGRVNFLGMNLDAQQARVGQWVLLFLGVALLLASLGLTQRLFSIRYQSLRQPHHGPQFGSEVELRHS

Row | Compound | IC50
25 | O=C1OCCN1/N=C/c1ccc([N+](=O)[O-])o1 [FURAZOLIDONE] | Not Active
26 | CCCc1cc(=O)[nH]c(=S)[nH]1 [PROPYLTHIOURACIL] | Not Active
27 | CC(=O)OCC(=O)[C@@]1(OC(C)=O)[C@@H](C)C[C@H]2[C@@H]3C[C@H](F)C4=CC(=O)C=C[C@]4(C)[C@@]3(F)[C@@H](O)C[C@@]21C [DIFLORASONE DIACETATE] | Not Active

biological target: Glycine receptor (Rattus norvegicus, UniProt P22771+P24524+P07727+P20781); test: not given; type: cell membranes, Wistar, Spinal cord, Membrane; details: not given; also: in other assays of this panel Not Active means under 50% inhibition at 10 µM

Row | Compound | IC50
28 | O=C1OCCN1/N=C/c1ccc([N+](=O)[O-])o1 [FURAZOLIDONE] | Not Active
29 | CCCc1cc(=O)[nH]c(=S)[nH]1 [PROPYLTHIOURACIL] | Not Active
30 | CC(=O)OCC(=O)[C@@]1(OC(C)=O)[C@@H](C)C[C@H]2[C@@H]3C[C@H](F)C4=CC(=O)C=C[C@]4(C)[C@@]3(F)[C@@H](O)C[C@@]21C [DIFLORASONE DIACETATE] | Not Active

biological target: T3, Substance-K receptor (Homo sapiens, UniProt P21452); test: not given; type: cell membranes, CHO, Membrane; details: cho; also: in other assays of this panel Not Active means under 50% inhibition at 10 µM
T3 sequence (P21452 whole entry): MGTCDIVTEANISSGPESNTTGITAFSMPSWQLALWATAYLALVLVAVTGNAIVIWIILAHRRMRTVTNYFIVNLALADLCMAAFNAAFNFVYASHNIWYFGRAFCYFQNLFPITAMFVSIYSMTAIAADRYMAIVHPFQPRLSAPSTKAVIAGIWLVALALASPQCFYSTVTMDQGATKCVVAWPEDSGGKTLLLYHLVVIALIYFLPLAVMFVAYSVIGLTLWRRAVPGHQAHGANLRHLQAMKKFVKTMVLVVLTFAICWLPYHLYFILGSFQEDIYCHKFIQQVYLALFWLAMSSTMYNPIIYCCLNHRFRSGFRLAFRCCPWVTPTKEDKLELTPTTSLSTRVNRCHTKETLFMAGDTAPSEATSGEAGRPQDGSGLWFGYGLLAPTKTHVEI

Row | Compound | IC50
31 | O=C1OCCN1/N=C/c1ccc([N+](=O)[O-])o1 [FURAZOLIDONE] | Not Active
32 | CCCc1cc(=O)[nH]c(=S)[nH]1 [PROPYLTHIOURACIL] | Not Active
33 | CC(=O)OCC(=O)[C@@]1(OC(C)=O)[C@@H](C)C[C@H]2[C@@H]3C[C@H](F)C4=CC(=O)C=C[C@]4(C)[C@@]3(F)[C@@H](O)C[C@@]21C [DIFLORASONE DIACETATE] | Not Active

biological target: Adenosine receptor A2a (Homo sapiens, UniProt P29274); test: DRUGMATRIX: Adenosine A2A radioligand binding (ligand: […]); type: cell membranes, HEK293, Membrane; details: hek293; Not Active = under 50% inhibition at 10 µM
Sequence (P29274 whole entry): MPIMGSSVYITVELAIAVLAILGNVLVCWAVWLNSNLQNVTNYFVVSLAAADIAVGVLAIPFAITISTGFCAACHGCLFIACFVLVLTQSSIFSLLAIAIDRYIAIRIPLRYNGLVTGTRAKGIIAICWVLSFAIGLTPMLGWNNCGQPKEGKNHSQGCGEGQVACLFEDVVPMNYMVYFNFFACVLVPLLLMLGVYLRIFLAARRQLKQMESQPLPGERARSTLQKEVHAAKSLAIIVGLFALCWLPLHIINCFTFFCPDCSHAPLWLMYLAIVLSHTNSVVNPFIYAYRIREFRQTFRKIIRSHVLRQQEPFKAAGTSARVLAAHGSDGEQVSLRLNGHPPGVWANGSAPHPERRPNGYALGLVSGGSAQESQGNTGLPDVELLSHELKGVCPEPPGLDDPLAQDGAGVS

Row | Compound | IC50
34 | O=C1OCCN1/N=C/c1ccc([N+](=O)[O-])o1 [FURAZOLIDONE] | Not Active
35 | CCCc1cc(=O)[nH]c(=S)[nH]1 [PROPYLTHIOURACIL] | Not Active
36 | CC(=O)OCC(=O)[C@@]1(OC(C)=O)[C@@H](C)C[C@H]2[C@@H]3C[C@H](F)C4=CC(=O)C=C[C@]4(C)[C@@]3(F)[C@@H](O)C[C@@]21C [DIFLORASONE DIACETATE] | Not Active
